Data set [1] can be described thus: Clearance in Sprague-Dawley rat at 2 mg/kg, iv. The class given is ADME, organism-based. On the set-up: dose 2 mg/kg, route intravenous. The following applies: in vivo.
Data set [2] concerns the target T1, Progesterone receptor (Homo sapiens, UniProt P06401).
T1 sequence (P06401 whole entry): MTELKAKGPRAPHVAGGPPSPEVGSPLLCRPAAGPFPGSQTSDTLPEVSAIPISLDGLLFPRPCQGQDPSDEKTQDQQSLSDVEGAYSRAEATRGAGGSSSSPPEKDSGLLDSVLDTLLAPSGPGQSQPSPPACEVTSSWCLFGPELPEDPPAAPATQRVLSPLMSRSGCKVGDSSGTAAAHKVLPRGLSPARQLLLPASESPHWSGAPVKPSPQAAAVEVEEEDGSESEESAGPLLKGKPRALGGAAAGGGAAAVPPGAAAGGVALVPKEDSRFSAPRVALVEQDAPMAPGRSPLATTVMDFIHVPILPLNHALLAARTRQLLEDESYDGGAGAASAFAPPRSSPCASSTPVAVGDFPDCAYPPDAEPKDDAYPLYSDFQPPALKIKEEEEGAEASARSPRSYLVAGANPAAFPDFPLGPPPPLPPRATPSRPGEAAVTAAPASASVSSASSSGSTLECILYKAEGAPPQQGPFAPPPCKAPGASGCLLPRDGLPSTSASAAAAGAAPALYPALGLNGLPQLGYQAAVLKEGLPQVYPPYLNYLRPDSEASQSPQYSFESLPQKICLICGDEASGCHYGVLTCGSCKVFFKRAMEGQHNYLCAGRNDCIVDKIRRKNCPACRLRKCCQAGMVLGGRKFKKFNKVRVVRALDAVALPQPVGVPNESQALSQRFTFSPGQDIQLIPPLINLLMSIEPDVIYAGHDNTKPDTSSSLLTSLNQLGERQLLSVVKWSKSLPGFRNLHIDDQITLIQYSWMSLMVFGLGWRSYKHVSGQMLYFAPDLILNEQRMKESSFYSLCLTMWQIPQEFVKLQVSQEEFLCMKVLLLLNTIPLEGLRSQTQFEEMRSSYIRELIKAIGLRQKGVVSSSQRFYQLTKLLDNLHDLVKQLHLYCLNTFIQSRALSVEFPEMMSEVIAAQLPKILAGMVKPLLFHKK
The data set can be described thus: Antagonist activity at progesterone receptor. The class given is functional.

Data set [3] addresses T2, Glucocorticoid receptor (Homo sapiens, UniProt P04150).
T2 sequence (P04150 whole entry): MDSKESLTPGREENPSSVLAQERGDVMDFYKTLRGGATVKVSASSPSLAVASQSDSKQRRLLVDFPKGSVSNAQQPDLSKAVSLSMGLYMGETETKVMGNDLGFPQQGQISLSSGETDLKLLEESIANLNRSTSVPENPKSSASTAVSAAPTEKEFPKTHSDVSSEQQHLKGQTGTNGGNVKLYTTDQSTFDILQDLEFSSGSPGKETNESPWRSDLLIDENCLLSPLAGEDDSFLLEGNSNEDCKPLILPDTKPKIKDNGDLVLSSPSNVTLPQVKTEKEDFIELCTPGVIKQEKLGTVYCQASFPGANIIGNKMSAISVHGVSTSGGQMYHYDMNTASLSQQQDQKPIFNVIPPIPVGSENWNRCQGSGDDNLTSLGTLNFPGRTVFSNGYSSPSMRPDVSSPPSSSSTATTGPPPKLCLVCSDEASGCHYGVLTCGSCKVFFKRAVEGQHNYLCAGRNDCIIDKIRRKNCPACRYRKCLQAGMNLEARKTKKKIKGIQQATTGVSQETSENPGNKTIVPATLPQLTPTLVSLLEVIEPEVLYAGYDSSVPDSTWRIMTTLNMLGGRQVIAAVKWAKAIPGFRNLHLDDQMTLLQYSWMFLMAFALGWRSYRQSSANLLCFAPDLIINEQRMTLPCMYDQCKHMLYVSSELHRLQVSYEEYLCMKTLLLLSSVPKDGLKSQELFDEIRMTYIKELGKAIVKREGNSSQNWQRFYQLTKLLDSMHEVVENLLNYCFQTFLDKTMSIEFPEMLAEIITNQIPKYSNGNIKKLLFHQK

Data set [4] in a line: Volume of distribution at steady state in Sprague-Dawley rat at 2 mg/kg, iv. Further details: dose 2 mg/kg, route intravenous. The following applies: in vivo, read-out: Vdss. The class given is ADME, organism-based.
A short description of data set [5]: Half life in Sprague-Dawley rat at 2 mg/kg, iv. The class given is ADME, organism-based. Further details: dose 2 mg/kg, route intravenous. The settings on record: in vivo.
The target in data set [6] is T3, Androgen receptor (Homo sapiens, UniProt P10275).
T3 sequence (P10275 whole entry): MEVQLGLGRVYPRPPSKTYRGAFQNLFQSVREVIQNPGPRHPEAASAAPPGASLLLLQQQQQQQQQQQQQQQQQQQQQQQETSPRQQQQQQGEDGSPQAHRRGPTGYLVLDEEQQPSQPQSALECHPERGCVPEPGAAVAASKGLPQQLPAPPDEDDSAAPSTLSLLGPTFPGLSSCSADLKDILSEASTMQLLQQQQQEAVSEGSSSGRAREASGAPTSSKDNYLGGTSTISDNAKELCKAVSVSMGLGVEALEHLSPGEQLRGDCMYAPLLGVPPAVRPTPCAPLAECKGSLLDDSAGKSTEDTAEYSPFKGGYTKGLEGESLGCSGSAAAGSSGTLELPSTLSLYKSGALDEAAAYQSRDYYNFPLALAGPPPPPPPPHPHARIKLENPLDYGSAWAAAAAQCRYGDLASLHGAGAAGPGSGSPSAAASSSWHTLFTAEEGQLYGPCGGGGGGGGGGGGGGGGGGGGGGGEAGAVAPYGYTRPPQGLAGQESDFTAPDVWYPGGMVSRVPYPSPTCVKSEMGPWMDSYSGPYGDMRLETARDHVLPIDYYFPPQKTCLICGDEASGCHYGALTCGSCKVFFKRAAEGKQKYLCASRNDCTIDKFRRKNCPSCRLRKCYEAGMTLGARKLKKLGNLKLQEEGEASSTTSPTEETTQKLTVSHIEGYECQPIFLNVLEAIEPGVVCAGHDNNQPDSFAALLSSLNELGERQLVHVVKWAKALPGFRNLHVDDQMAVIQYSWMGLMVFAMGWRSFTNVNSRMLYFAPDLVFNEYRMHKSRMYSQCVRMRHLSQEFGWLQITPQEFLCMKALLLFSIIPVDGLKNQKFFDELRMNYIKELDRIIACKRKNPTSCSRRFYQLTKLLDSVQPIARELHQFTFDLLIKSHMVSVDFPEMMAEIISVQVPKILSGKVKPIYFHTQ

Data set [7] in a line: Oral bioavailability in Sprague-Dawley rat at 2 mg/kg. The class given is ADME, organism-based. The following applies: in vivo.
Data set [8] deals with T4, Mineralocorticoid receptor (Homo sapiens, UniProt P08235).
T4 sequence (P08235 whole entry): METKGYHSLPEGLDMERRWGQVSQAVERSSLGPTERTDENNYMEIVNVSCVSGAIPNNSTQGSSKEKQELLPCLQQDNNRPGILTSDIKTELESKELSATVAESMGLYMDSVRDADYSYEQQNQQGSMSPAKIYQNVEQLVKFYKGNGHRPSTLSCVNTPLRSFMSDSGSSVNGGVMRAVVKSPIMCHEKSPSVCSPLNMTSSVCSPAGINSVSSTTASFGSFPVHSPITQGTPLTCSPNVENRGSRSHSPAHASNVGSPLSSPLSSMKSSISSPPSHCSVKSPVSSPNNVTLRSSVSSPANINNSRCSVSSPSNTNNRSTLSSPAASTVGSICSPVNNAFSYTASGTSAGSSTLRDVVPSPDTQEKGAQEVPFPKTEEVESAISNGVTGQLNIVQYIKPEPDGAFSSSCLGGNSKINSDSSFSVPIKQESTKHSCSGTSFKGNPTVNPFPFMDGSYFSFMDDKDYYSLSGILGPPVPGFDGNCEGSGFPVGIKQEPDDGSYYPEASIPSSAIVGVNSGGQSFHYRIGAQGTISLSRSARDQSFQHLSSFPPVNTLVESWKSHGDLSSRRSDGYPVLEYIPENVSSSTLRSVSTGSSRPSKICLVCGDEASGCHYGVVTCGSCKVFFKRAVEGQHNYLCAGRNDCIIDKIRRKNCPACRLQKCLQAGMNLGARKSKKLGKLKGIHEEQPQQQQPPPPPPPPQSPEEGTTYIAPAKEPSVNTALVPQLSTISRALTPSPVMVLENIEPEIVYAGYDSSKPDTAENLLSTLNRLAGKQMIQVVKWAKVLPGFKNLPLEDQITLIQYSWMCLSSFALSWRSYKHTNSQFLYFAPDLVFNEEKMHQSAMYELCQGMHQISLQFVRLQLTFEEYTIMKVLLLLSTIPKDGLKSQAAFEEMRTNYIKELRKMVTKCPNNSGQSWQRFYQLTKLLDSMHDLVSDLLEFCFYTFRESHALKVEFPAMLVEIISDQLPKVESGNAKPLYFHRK
The class given is functional, cell-based, Huh-7.

The target in data set [9] is T5, Estrogen receptor (Homo sapiens, UniProt P03372).
T5 sequence (P03372 whole entry): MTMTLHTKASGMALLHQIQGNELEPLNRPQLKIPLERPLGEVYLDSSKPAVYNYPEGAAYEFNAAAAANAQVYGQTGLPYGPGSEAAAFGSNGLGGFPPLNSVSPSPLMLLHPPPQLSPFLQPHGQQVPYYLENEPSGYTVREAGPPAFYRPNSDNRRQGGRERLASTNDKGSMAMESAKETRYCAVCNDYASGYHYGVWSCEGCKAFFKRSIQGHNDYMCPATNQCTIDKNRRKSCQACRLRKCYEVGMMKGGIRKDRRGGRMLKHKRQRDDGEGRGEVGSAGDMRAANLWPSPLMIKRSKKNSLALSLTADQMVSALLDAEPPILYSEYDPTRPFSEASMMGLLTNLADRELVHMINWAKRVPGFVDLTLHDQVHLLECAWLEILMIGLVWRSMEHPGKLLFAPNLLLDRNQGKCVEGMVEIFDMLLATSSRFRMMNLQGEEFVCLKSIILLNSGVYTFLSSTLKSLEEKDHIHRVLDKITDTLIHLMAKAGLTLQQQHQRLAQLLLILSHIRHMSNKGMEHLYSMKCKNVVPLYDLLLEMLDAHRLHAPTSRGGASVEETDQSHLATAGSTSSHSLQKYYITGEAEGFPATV
The data set can be described thus: Antagonist activity at estrogen receptor. The class given is functional.

Data set [10] can be described thus: Oral bioavailability in Sprague-Dawley rat at 1 mg/kg. The class given is ADME, organism-based. The following applies: in vivo.
Data set [11] can be described thus: Volume of distribution at steady state in Sprague-Dawley rat at 1 mg/kg, iv. The class given is ADME, organism-based. Further details: dose 1 mg/kg, route intravenous. The following applies: in vivo, read-out: Vdss.
A short description of data set [12]: Clearance in Sprague-Dawley rat at 1 mg/kg, iv. The class given is ADME, organism-based. On the set-up: dose 1 mg/kg, route intravenous. The following applies: in vivo.
Data set [13] is described as follows: Half life in Sprague-Dawley rat at 1 mg/kg, iv. The class given is ADME, organism-based. Further details: dose 1 mg/kg, route intravenous. The settings on record: in vivo.

The record followed here is ChEMBL document CHEMBL1212897 (J Med Chem, 2010).

Turning to `N#Cc1ccc(N2N=C(c3ccc(C(=O)O)cc3)C[C@@H]2c2ccc(F)cc2)cc1Cl`, the clearance in [1] stood at 6.9 mL/min/kg. For the same molecule, the IC50 in data set [2] is 2.08 µM; in data set [3], > 10 µM; in data set [6] it was > 8.92 µM; in data set [8], 0.031 µM. Besides, in data set [4], the Vd amounted to 1.5 L/kg. Moreover, the half-life in [5] was 2.6 h. The molecule also returned a bioavailability in data set [7] of 46%.

Consider `Cc1cc(N2N=C3c4ccc(C(=O)O)cc4CO[C@@H]3[C@@H]2C2CCCC2)ccc1C#N`, for which the clearance in data set [1] was found to be 4.6 mL/min/kg. In addition, the IC50 was 1.88 µM in [2], > 10 µM in data set [3], > 10 µM in data set [6] and 0.026 µM in data set [8]. Also, in [4], the Vd turned out to be 0.6 L/kg. The molecule further gave a half-life in [5] of 1.6 h. Further, in data set [7], the bioavailability stood at 57%.

As for `CCOc1cc(C2=NN(c3ccc(C#N)c(Cl)c3)[C@@H](C3CCCC3)C2)ccc1C(=O)O`, in data set [9], the IC50 is > 4.96 µM. The bioavailability in data set [10] came out at 50%; in [7], 83%. The results for the Vd in data set [11] and in data set [4] were 2.3 L/kg and 0.6 L/kg, respectively. Further, the clearance in data set [1] was found to be 5.5 mL/min/kg; in data set [12] it was 9.2 mL/min/kg. The half-life in data set [13] was 2.5 h; in data set [5], 1.3 h.

With `COC(=O)[C@@H]1CC2=CC(=O)CC[C@]2(C)[C@@]23O[C@@H]2C[C@@]2(C)[C@@H](CC[C@@]24CCC(=O)O4)[C@H]13` [EPLERENONE], the IC50 in data set [9] was > 10 µM.

`COc1cc(C2=NN(c3ccc(C#N)c(Cl)c3)[C@@H](C3CCCC3)C2)ccc1C(=O)O`: the IC50 in data set [9] is > 10 µM. This molecule showed a clearance in data set [1] of 24 mL/min/kg. Also, in data set [4], the Vd was found to be 3.9 L/kg. The molecule further gave a half-life in data set [5] of 1.9 h. Also, the bioavailability in [7] stood at 57%.

As for `N#Cc1ccc(N2N=C3c4ccc(C(=O)O)cc4CC[C@@H]3[C@@H]2C2CCCC2)cc1` (racemic), the IC50 in [2] is 3.18 µM; in data set [3], > 10 µM; in data set [6], > 10 µM; in [8] it was 0.089 µM.

In [1], `N#Cc1ccc(N2N=C(c3ccc(C(=O)O)cc3)C[C@@H]2C2CCCC2)cc1Cl` gave a clearance of 34 mL/min/kg. Also, the IC50 in data set [2] was > 4.31 µM; in data set [3] it was > 10 µM; in data set [6], > 10 µM; in data set [8], 0.016 µM. The Vd in data set [4] came to 3.6 L/kg. In [5], this molecule had a half-life of 1.2 h. This molecule also yielded a bioavailability in [7] of 100%.

For the molecule `CC(=O)S[C@@H]1CC2=CC(=O)CC[C@]2(C)[C@H]2CC[C@@]3(C)[C@@H](CC[C@@]34CCC(=O)O4)[C@H]12` [SPIRONOLACTONE], the values for the IC50 in data set [9] and in data set [3] were 5.7 µM and 6.92 µM, respectively.
